Test results from publication PMC11271967, “An inhibitory mechanism of AasS, an exogenous fatty acid scavenger: Implications for re-sensitization of FAS II antimicrobials” (PLOS Pathogens, 2024).
“Also recorded” adds a separate entry of the source. Read-outs that look alike come from different tables or passages of the source.

Assays:
AasS [1] = biological target: T1, AasS (Vibrio harveyi, UniProt Q00IB3); assay: Isothermal titration calorimetry (ITC), wild-type AasS; assay type: binding; details: for binding to AasS in ITC: negative controls
T1 sequence (Q00IB3 entry or part of it): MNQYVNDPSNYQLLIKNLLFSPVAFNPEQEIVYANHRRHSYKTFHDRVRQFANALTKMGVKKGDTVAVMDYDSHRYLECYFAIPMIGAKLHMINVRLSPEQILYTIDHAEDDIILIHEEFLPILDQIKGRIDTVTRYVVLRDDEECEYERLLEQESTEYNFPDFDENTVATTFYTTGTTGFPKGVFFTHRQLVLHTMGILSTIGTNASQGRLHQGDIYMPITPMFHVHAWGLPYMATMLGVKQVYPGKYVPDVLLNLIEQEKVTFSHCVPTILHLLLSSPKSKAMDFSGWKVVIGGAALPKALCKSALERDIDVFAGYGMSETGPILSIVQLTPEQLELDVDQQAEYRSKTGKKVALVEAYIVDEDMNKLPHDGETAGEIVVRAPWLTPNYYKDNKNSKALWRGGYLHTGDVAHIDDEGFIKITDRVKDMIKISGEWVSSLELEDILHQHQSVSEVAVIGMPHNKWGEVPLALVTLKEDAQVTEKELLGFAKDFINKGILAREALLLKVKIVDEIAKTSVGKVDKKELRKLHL
Method: The assays of Isothermal titration calorimetry (ITC) were conducted to address the stoichiometry of AasS binding to its C10-AMS inhibitor and C10-AMP intermediate. Since both malic acid and pimelic acid are not substrates for AasS, the two dicarboxylic acids were assumed as negative controls in our ITC analysis. Using a micro-calorimeter (MicroCal PEAQ-ITC) as recently described for E-C7 with little change, totally 18 titrations (2 μl each at an internal of 2.5 min) proceeded in the cell at room temperature. Prior to the titration, AasS protein (~40 μM) was saturated with its ATP cofactor (120 μM) in the cell, and C10-AMS inhibitor (or C10) was kept at 600 μM in the syringe. The titration buffer was composed of 150 mM NaCl, 25 mM Tris-HCl (pH8.0), 2 mM DTT, and 3 mM MgCl2. One set of site model by the MicroCal PEAQ-ITC software enabled plotting the titration curves. Next, the stoichiometry (N) and dissociation constant (Kd) were calculated. It was given as an average ± standard deviation (SD) from three independent trials.

AasS [2] = assay: In vitro enzymatic activity of AasS (acyl-ACP formation, conformationally-sensitive urea PAGE, ImageJ semi-quantitation); assay type: biochemical, Vibrio harveyi; details: for C10-ACP conversion from C10 substrate, Average: AasS 3 nM, fig. 2E; for activity as substrate of AasS in vitro (ligation with holo-ACP): urea gel
AasS (D411A) = assay: Isothermal titration calorimetry (ITC), AasS (D411A) mutant; assay type: binding, Vibrio harveyi
Method: Fig 7 Parallels in binding of AasS to the C10-AMP adenylate intermediate and the C10-AMS inhibitor. Structural visualization for AasS binding an intermediate C10-AMP adenylate (A) and its inhibitor C10-AMS (B). […] C. […] Both AasS enzymatic reaction and conformationally-sensitive gel separation were conducted as described in Fig 2D and 2F. D. In vivo evidence that the three single mutants of AasS (D411A, R426A, and K432A) lose the ability to bypass the physiological requirement of biotin for the bioC isogenic mutant of E. coli on the non-permissive condition. The bacterial viability on M9 defined agar medium was determined as performed in Fig 4E. […] The ITC assays were carried out as we conducted in Fig 3B.
The assays of Isothermal titration calorimetry (ITC) were conducted to address the stoichiometry of AasS binding to its C10-AMS inhibitor and C10-AMP intermediate. Since both malic acid and pimelic acid are not substrates for AasS, the two dicarboxylic acids were assumed as negative controls in our ITC analysis. Using a micro-calorimeter (MicroCal PEAQ-ITC) as recently described for E-C7 with little change, totally 18 titrations (2 μl each at an internal of 2.5 min) proceeded in the cell at room temperature. […] Next, the stoichiometry (N) and dissociation constant (Kd) were calculated. […]

AasS(D411A) = assay: Microscale thermophoresis (MST), AasS(D411A) mutant; assay type: binding, Vibrio harveyi; details: D411A 180 nM; C10/ATP mixture 0.15 nM to 5.0 μM
Method: (§1) To validate poor binding of AasS(D411A) to C10 fatty acyl adenylate observed in our ITC assays, the relatively-more sensitive approach of microscale thermophoresis (MST) was additionally applied here as Jerabek-Willemsen et al. described with minor alteration. Using the Protein Labeling Kit (Protein Labeling Kit RED-NHS 2nd Generation, Nano Temper Technology), both the wild-type AasS and its D411A mutant were fluorescently labelled in the MST buffer (150 mM NaCl, 25 mM Tris-HCl, 3 mM MgCl2, 0.05% Tween-20, pH 8.0). The ligand C10-AMP used in MST assays was prepared by an equal mixture of C10 and ATP. In general, an NT.115 Monolith instrument (Nano Temper Technology, Germany) was integrated, of which the routine parameters included a RED/LED (20%) excitation power along with 60% laser power for excitation. Then, the protein samples were siphoned into MST Premium Coated capillaries for the determination of binding affinity at room temperature. The final concentrations of different AasS samples were 40 nM for WT, and 180 nM for D411A, respectively. The mixture of C10/ATP was diluted in a gradient (from 0.15 nM to 5.0 μM). Three independent MST experiments were conducted here. The dissociation constants (Kd) were calculated using the software MO. Affinity Analysis v2.3. Of note, this was largely dependent on the KD model with a 1:1 stoichiometry per binding partner.

AasS [3] = biological target: T1, AasS; assay: Microscale thermophoresis (MST), wild-type AasS; assay type: binding; details: AasS 40 nM; C10/ATP mixture 0.15 nM to 5.0 μM
Method: as §1

AasS [4] = biological target: T1, AasS; parameters: method as in PMID 39794554; details: cited from earlier work
[5] = test system: MenE, an o-succinylbenzoyl-CoA synthetase; details: cited from earlier work
[6] = test system: AasS-expressing E. coli ΔbioC strain; assay: AasS-based bypass of biotin synthesis, bacterial viability on M9 agar; assay type: cell-based, Escherichia coli; details: biotin-deficient M9 medium
From the text: Fig 4 Integrated evidence for the inhibition of AasS action with E-C7 fatty acid by C10-AMS compound. A. Schematic diagram of AasS-catalyzed ligation of E-C7 with holo-ACP recipient to produce E-C7-ACP. […] A representative photograph of three independent trials was given. C. Relatively-quantitative analysis (for the inhibitory efficacy of C10-AMS on AasS-catalyzed E-C7-ACP production. As for AasS reaction (panel B), unlike the three components that are at constant levels, namely (i) AasS (31.25 nM), (ii) E-C7 (600 μM), and (iii) ACP (3 μg), C10-AMS inhibitor was supplemented at varied ratio in relative to the AasS enzyme (ranging from 0:1, 25:1, 50:1, 100:1, 200:1, 300:1, 400:1, to 500:1). The ImageJ software was applied to measure the relative percentage (%) of E-C7 fatty acylation in each AasS reaction. The resultant graphs were plotted from three independent experiments, in which the output was expressed as means ± SD (standard deviations). D. Schematic diagram for C10-AMS inhibition of AasS-based bypass of biotin requirement by the E. coli ΔbioC biotin auxotroph on the non-permissive condition. […] Log-phase cultures in a series of 10-fold dilution (shown in panel on right hand), were spotted on the x-gal-containing M9 agar plates supplemented with C10-AMS inhibitor at varied levels (0, 50, 100, to 500 μM). The addition of x-gal substrate enabled the occurrence of blue colonies for better photographing, and viable colonies were highlighted with yellow arrows.
Given that AasS ligates E-C7 fatty acid with holo-ACP, giving E-C7-ACP, an alternative precursor for bacterial biotin synthesis, plasmid-borne aasS expression in ΔbioC biotin auxotroph strain is assumed to overcome the requirement of the primary BioC step [58, 83]. Apart from its WT, three single mutants of AasS (D411A, R426A, and K432A) were examined in vivo, of which the compromised activity is presumably proportional to the varied viability of the ΔbioC reporter strains on the non-permissive M9 growth condition. To test its inhibitory effect, the C10-AMS inhibitor in a series of dilution was supplemented. […]

CCCCCCCCCC(=O)O [C10, decanoic acid]
Kd (AasS [1]): 54.4 ± 5.1 nM | C10-ACP conversion from C10 substrate, Average (AasS [2]; C10 6 μM): 46.1519 | C10-ACP conversion from C10 substrate, Average (AasS [2]; C10 12 μM): 68.3859 | C10-ACP conversion from C10 substrate, Average (AasS [2]; C10 24 μM): 90.5892 | C10-ACP conversion from C10 substrate, Average (AasS [2]; C10 60 μM): 89.8102 | C10-ACP conversion from C10 substrate, Average (AasS [2]; C10 120 μM): 91.2632 | C10-ACP conversion from C10 substrate, Average (AasS [2]; C10 180 μM): 91.9374 | C10-ACP conversion from C10 substrate, Average (AasS [2]; C10 240 μM): 91.9685 | binding to AasS (D411A) in ITC (words) (AasS (D411A)): fails to effectively bind | binding to AasS (D411A) in ITC (words) (AasS (D411A); listed as decanoic acid): does not

CCCCCCCCCC(=O)OP(=O)(O)OCC1OC(n2cnc3c(N)ncnc32)C(O)C1O (centres unmarked) [C10-AMP, decanoyl-adenylate]
binding by AasS(D411A) in MST (AasS(D411A)): lose its ability of binding | binding by wild-type AasS in MST (AasS [3]): efficient binding | stoichiometry (n) (AasS [1]; AasS ~40 μM saturated with ATP 120 μM): 0.77 ± 0.04 | Kd (AasS [1]; AasS ~40 μM saturated with ATP 120 μM, ligand 600 μM in syringe, room temperature, read-out: dissociation constant (Kd)): 64.4 ± 5.2 nM

CCOC(=O)CCCCCC(=O)O [E-C7, mono-ethyl pimelic acid]
binding affinity to AasS (AasS [4]): mild affinity

Nc1ncnc2c1ncn2[C@@H]1O[C@H](COS(=O)(=O)NC(=O)CCC(=O)c2ccccc2C(=O)O)[C@@H](O)[C@H]1O [OSB-AMS]
mode of inhibition of MenE [5]: mixed-type inhibitor

O=C(O)CC(O)C(=O)O (centres unmarked) [malic acid]
binding to AasS in ITC (AasS [1]): none of the two dicarboxylic acids; also recorded: without an ability of binding | activity as substrate of AasS in vitro (ligation with holo-ACP) (AasS [2]): inactive | support of AasS-based biotin bypass as sole carbon source [6]: loss of function in supporting bacterial viability; also recorded: cannot bypass biotin requirement

O=C(O)CCCCCC(=O)O [pimelic acid]
binding to AasS in ITC (AasS [1]): no binding | binding to AasS in ITC (AasS [1]; listed as pimelate): none of the two dicarboxylic acids | activity as substrate of AasS in vitro (ligation with holo-ACP) (AasS [2]): inactive | support of AasS-based biotin bypass as sole carbon source [6]: loss of function in supporting bacterial viability; also recorded: Failure of AasS-based biotin bypass
